According to ChEMBL document CHEMBL4190267, “Discovery of potent molecular chimera (CM358) to treat human metastatic melanoma” (Eur J Med Chem, 2017):
The source made the active and inactive calls. The calls are words filed in the database; no cut-off is given here.

Experiments:
PC-3 [1] = assay: Growth inhibition of human PC3 cells preincubated for 6 hrs followed compound washout measured after 24 hrs by XTT assay; type: functional
PC-3 [2] = assay: Growth inhibition of human PC3 cells preincubated for 6 hrs cotreated with amonafide followed compound washout measured after 24 hrs by XTT assay; type: functional
MDA-MB-231 [3] = assay: Growth inhibition of human MDA-MB-231 cells preincubated for 6 hrs followed compound washout measured after 24 hrs by XTT assay; type: functional
MDA-MB-231 [4] = assay: Growth inhibition of human MDA-MB-231 cells preincubated for 6 hrs cotreated with amonafide followed compound washout measured after 24 hrs by XTT assay; type: functional
WM 266-4 [5] = assay: Growth inhibition of human WM266.4 cells preincubated for 6 hrs followed compound washout measured after 24 hrs by XTT assay; type: functional
WM 266-4 [6] = assay: Growth inhibition of human WM266.4 cells preincubated for 6 hrs cotreated with amonafide followed compound washout measured after 24 hrs by XTT assay; type: functional
A 172 [7] = assay: Growth inhibition of human A172 cells preincubated for 6 hrs followed compound washout measured after 24 hrs by XTT assay; type: functional
A 172 [8] = assay: Growth inhibition of human A172 cells preincubated for 6 hrs cotreated with amonafide followed compound washout measured after 24 hrs by XTT assay; type: functional
NCI-H1299 [9] = assay: Growth inhibition of human NCI-H1299 cells preincubated for 6 hrs followed compound washout measured after 24 hrs by XTT assay; type: functional
NCI-H1299 [10] = assay: Growth inhibition of human NCI-H1299 cells preincubated for 6 hrs cotreated with amonafide followed compound washout measured after 24 hrs by XTT assay; type: functional
WM 266-4 [11] = assay: Cell cycle arrest in human WM266.4 cells assessed as accumulation at G1 phase at 10 uM cotreated with amonafide after 2 hrs by propidium iodide staining based flow cytometry (reference value: 59%); type: functional
WM 266-4 [12] = assay: Cell cycle arrest in human WM266.4 cells assessed as accumulation at S phase at 10 uM cotreated with amonafide after 2 hrs by propidium iodide staining based flow cytometry (reference value: 27%); type: functional
WM 266-4 [13] = assay: Cell cycle arrest in human WM266.4 cells assessed as accumulation at G2 phase at 10 uM cotreated with amonafide after 2 hrs by propidium iodide staining based flow cytometry (reference value: 11%); type: functional
WM 266-4 [14] = assay: Cell cycle arrest in human WM266.4 cells assessed as accumulation at G1 phase at 10 uM cotreated with amonafide after 8 hrs by propidium iodide staining based flow cytometry (reference value: 59%); type: functional
WM 266-4 [15] = assay: Cell cycle arrest in human WM266.4 cells assessed as accumulation at S phase at 10 uM cotreated with amonafide after 8 hrs by propidium iodide staining based flow cytometry (reference value: 27%); type: functional
WM 266-4 [16] = assay: Cell cycle arrest in human WM266.4 cells assessed as accumulation at G2 phase at 10 uM cotreated with amonafide after 8 hrs by propidium iodide staining based flow cytometry (reference value: 11%); type: functional
WM 266-4 [17] = assay: Cell cycle arrest in human WM266.4 cells assessed as accumulation at G1 phase at 10 uM cotreated with amonafide after 24 hrs by propidium iodide staining based flow cytometry (reference value: 59%); type: functional
WM 266-4 [18] = assay: Cell cycle arrest in human WM266.4 cells assessed as accumulation at S phase at 10 uM cotreated with amonafide after 24 hrs by propidium iodide staining based flow cytometry (reference value: 27%); type: functional
WM 266-4 [19] = assay: Cell cycle arrest in human WM266.4 cells assessed as accumulation at G2 phase at 10 uM cotreated with amonafide after 24 hrs by propidium iodide staining based flow cytometry (reference value: 11%); type: functional
WM 266-4 [20] = assay: Antitumor activity against human WM266.4 cells xenografted in athymic Foxn1 nu mouse assessed as tumor growth inhibition at 10 mg/kg, ip cotreated with amonafide administered once daily for 3 days followed by resting period of 4 days repeated for 4 weeks starting from 5 days post tumor inoculation; type: functional, organism-based
WM 266-4 [21] = assay: Antitumor activity against human WM266.4 cells xenografted in athymic Foxn1 nu mouse assessed as tumor growth inhibition at 10 mg/kg, ip cotreated with amonafide administered once daily for 7 days followed by resting period of 2 days repeated for 4 weeks starting from 5 days post tumor inoculation; type: functional, organism-based
Mus musculus [22] = assay: Toxicity in athymic Foxn1 nu mouse xenografted with human WM266.4 cells assessed as body weight loss at 10 mg/kg, ip cotreated with amonafide administered once daily for 7 days followed by resting period of 2 days repeated for 4 weeks starting from 5 days post tumor inoculation; type: organism-based; settings: in vivo
Mus musculus [23] = assay: Toxicity in athymic Foxn1 nu mouse xenografted with human WM266.4 cells assessed as body weight loss at 10 mg/kg, ip cotreated with amonafide administered once daily for 3 days followed by resting period of 4 days repeated for 4 weeks starting from 5 days post tumor inoculation; type: organism-based; settings: in vivo
PC-3 [24] = assay: Growth inhibition of human PC3 cells up to 25 uM cotreated with colchicine measured after 24 hrs by XTT assay; type: functional, cell-based
MDA-MB-231 [25] = assay: Growth inhibition of human MDA-MB-231 cells up to 25 uM cotreated with colchicine measured after 24 hrs by XTT assay; type: functional, cell-based
WM 266-4 [26] = assay: Growth inhibition of human WM266.4 cells up to 25 uM cotreated with colchicine measured after 24 hrs by XTT assay; type: functional, cell-based
A 172 [27] = assay: Growth inhibition of human A172 cells up to 25 uM cotreated with colchicine measured after 24 hrs by XTT assay; type: functional, cell-based
NCI-H1299 [28] = assay: Growth inhibition of human NCI-H1299 cells up to 25 uM cotreated with colchicine measured after 24 hrs by XTT assay; type: functional, cell-based
WM 266-4 [29] = assay: Growth inhibition of human WM266.4 cells at 25 uM after 24 hrs by XTT assay; type: functional, cell-based

O=C(O)CCCc1ccc(N(CCCl)CCCl)cc1 [CHLORAMBUCIL] was tested, and the GI50 (PC-3 [1]) was greater than 25 µM, the GI50 (PC-3 [2]) was greater than 25 µM and the GI50 (MDA-MB-231 [3]) was greater than 25 µM. For the same compound, the GI50 (MDA-MB-231 [4]) was greater than 25 µM, the GI50 (WM 266-4 [5]) was greater than 25 µM and the GI50 (WM 266-4 [6]) was greater than 25 µM. For the same compound, the GI50 (A 172 [7]) was greater than 25 µM, the GI50 (A 172 [8]) was greater than 25 µM and the GI50 (NCI-H1299 [9]) was greater than 25 µM. The GI50 (NCI-H1299 [10]) was greater than 25 µM, the Activity (WM 266-4 [11]) was 63.5% and the Activity (WM 266-4 [12]) was 26%. It also gave an Activity (WM 266-4 [13]) of 9.8%, an Activity (WM 266-4 [14]) of 29% and an Activity (WM 266-4 [15]) of 44.7%. The Activity (WM 266-4 [16]) was 23%, the Activity (WM 266-4 [17]) was 35% and the Activity (WM 266-4 [18]) was 39%. For the same compound, the Activity (WM 266-4 [19]) was 26%, the TGI (WM 266-4 [20]) was “inactive” and the TGI (WM 266-4 [21]) was “inactive”. For the same compound, the Activity (Mus musculus [22]) was “Toxic” and the Activity (Mus musculus [23]) was “Toxic”.
In the case of CC[C@@]1(O)C(=O)OCc2c1cc1n(c2=O)Cc2cc3ccccc3nc2-1, the “growth inhibition (GI)” value (PC-3 [24]) is reported as “Active”, the “growth inhibition (GI)” value (MDA-MB-231 [25]) is reported as “Active” and the “growth inhibition (GI)” value (WM 266-4 [26]) is reported as “Active”. For the same compound, the “growth inhibition (GI)” value (A 172 [27]) was “Active” and the “growth inhibition (GI)” value (NCI-H1299 [28]) was “Active”.
CC(=O)Nc1cc2c3c(cccc3c1)C(=O)N(CCN(C)C)C2=O was tested, and the “growth inhibition (GI)” value (WM 266-4 [29]) was “inactive”.
In the case of O=C(CCCc1ccc(N(CCCl)CCCl)cc1)Nc1ccn([C@@H]2O[C@H](CO)[C@@H](O)[C@@H]2O)c(=O)n1, the “growth inhibition (GI)” value (PC-3 [1]) is reported as “inactive”, the “growth inhibition (GI)” value (MDA-MB-231 [3]) is reported as “inactive” and the “growth inhibition (GI)” value (WM 266-4 [5]) is reported as “inactive”. For the same compound, the “growth inhibition (GI)” value (A 172 [7]) was “inactive” and the “growth inhibition (GI)” value (NCI-H1299 [9]) was “inactive”.
